Patent publication US9517232B2, “Compounds for treatment of alzheimer's disease” (Medi Synergics, LLC, priority 2013, dated 2016)
Like-named read-outs stand apart in the source and are kept apart here.

Legend:
[1] = molecular target: T1, Sigma1 (Homo sapiens, UniProt Q99720); test: Sigma-1 receptor Ki determination (NIMH PDSP); type: binding
Method: (§1) The compounds from the above Examples were tested for Sigma-1 and muscarinic M1-M5) activities. Ki determinations were generously provided by the National Institute of Mental Health's Psychoactive Drug Screening Program (PDSP), Contract #HHSN-271-2013-00017-C (NIMH PDSP). The NIMH PDSP is directed by Bryan L. Roth M D, PhD at the University of North Carolina at Chapel Hill and Project Officer Jamie Driscoll at NIMH, Bethesda Md., USA. Procedures employed by the PDSP are described in the NIMH PDSP Assay Protocol Book, Version II and follow published literature protocols.

[2] = molecular target: T2, M1 (Homo sapiens, UniProt P11229); test: Muscarinic M1 receptor Ki determination (NIMH PDSP); type: binding
T2 sequence (P11229 1-460): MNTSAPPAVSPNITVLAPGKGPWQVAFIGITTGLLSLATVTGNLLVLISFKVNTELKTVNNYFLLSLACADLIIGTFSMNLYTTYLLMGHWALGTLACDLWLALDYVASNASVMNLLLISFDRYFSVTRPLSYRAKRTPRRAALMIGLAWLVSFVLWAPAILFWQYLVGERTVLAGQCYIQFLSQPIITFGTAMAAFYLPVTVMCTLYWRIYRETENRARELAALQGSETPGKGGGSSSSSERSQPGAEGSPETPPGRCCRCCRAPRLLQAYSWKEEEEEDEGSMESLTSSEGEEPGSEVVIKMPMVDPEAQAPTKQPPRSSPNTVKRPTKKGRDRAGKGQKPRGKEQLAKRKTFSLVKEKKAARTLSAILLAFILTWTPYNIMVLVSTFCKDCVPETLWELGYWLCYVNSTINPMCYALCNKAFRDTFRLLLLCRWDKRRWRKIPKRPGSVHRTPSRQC
Method: as §1

[3] = molecular target: T3, M2 (Homo sapiens, UniProt P08172); test: Muscarinic M2 receptor Ki determination (NIMH PDSP); type: binding
T3 sequence (P08172 1-466): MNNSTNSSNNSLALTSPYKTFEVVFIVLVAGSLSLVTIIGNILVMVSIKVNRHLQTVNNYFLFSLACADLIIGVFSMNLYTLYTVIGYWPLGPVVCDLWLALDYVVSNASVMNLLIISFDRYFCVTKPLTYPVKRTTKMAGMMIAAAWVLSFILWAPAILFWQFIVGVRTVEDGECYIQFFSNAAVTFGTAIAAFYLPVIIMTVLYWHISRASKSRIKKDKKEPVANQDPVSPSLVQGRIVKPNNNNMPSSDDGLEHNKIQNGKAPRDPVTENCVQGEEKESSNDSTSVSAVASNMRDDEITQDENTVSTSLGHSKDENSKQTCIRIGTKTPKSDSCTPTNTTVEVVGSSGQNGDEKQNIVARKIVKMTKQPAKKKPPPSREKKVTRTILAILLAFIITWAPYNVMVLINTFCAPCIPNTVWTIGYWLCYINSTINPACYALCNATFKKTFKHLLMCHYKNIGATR
Method: as §1

[4] = molecular target: T4, M5 (Homo sapiens, UniProt P08912); test: Muscarinic M5 receptor Ki determination (NIMH PDSP); type: binding
T4 sequence (P08912 1-532): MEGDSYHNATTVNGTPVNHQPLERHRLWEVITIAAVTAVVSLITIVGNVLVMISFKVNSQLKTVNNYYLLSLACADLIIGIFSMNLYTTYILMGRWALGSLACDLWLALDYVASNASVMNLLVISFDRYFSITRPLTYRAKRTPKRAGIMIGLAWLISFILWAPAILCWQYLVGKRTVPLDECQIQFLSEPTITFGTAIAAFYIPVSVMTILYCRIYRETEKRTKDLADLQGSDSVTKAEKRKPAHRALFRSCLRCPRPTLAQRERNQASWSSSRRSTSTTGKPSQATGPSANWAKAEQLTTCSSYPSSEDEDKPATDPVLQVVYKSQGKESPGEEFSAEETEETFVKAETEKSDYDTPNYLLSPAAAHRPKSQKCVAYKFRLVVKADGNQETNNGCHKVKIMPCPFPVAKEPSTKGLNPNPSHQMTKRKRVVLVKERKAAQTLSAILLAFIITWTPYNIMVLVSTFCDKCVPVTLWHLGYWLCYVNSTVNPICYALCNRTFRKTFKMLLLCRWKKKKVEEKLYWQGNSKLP
Method: as §1

[5] = molecular target: T1, Sigma1; settings: Data from Poster, CNS Summit (2013); cited from earlier work
[6] = molecular target: T2, M1; settings: Data from Poster, CNS Summit (2013); cited from earlier work
[7] = molecular target: T3, M2; settings: Data from Poster, CNS Summit (2013); cited from earlier work
[8] = molecular target: M3 (Homo sapiens, UniProt P20309); settings: Data from Poster, CNS Summit (2013); cited from earlier work
Sequence of M3 (P20309 whole entry): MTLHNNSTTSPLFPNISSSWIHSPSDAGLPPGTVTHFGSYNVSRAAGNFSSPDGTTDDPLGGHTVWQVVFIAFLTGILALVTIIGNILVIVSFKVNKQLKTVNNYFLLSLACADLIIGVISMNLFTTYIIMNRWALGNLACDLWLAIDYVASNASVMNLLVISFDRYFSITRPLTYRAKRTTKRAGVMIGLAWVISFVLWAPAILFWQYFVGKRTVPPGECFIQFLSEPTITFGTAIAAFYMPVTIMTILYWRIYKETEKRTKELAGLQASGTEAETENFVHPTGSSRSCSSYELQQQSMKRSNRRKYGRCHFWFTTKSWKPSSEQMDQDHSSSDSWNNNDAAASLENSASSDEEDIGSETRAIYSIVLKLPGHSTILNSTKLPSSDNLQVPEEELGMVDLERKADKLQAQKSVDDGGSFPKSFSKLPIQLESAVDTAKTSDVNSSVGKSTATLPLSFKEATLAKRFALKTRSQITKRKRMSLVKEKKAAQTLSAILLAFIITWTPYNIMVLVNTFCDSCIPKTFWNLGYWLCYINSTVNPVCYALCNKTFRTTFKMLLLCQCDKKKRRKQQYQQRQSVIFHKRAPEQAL

[9] = molecular target: T5, M4 (Homo sapiens, UniProt P08173); settings: Data from Poster, CNS Summit (2013); cited from earlier work
T5 sequence (P08173 1-479): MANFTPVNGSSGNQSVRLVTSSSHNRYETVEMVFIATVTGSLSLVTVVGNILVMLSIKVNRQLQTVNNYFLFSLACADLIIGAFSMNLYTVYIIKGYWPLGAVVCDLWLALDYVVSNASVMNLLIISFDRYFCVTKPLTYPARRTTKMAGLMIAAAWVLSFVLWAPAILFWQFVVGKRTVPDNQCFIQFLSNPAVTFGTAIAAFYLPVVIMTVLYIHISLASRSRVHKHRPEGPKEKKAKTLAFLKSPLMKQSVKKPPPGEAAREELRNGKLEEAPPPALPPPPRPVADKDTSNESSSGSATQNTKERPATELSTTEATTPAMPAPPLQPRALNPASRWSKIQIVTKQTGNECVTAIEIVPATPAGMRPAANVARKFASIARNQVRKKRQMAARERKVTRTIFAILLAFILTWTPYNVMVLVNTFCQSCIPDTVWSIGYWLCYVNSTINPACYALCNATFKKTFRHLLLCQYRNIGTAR

T1 sequence (Q99720 whole entry): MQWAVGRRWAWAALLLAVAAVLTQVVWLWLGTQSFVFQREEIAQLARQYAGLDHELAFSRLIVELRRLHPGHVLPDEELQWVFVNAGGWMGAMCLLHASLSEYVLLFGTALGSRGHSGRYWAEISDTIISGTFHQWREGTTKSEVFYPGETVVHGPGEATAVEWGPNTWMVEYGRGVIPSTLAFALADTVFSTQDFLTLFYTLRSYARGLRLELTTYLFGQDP

Row | SMILES | Ki [1] | Ki [2] | Ki [3] | Ki [4] | Ki [5] | Ki [6] | Ki [7] | Ki [8] | Ki [9]
1 | CN(CCCC1(c2ccc(F)cc2)OCc2cc(C#N)ccc21)C1=NCCCC1 (stereo not drawn) [Example 3, 1-(4-fluorophenyl)-1-{3-[methyl(3,4,5,6-tetrahydropyridin-2-yl)amino]propyl}-1,3-dihydro-2-benzo-furan-5-carbonitrile] | 0.23 µM | 1.5 µM | 2.57 µM | 1.16 µM |  |  |  |  | 
2 | CN(C)CC1CCOC1(c1ccccc1)c1ccccc1 (stereo not drawn) [ANAVEX 2-73] |  |  |  |  | 0.86 µM | 3.32 µM | 3.97 µM | 5.33 µM | 5.19 µM
